Measured values as given in patent publication US11970483B2, “Heterocyclic compound” (Takeda Pharmaceutical Company Limited, priority 2018, dated 2024).

Assays:
[1] = Rat PK test (cassette dosing); type: in vivo; conditions: male SD rats, plasma; for clearance / MRT: intravenous 0.1 mg/kg, 10 compounds cassette; for clearance: read-out: CL total (total clearance) (converted); for MRT: read-out: MRT iv (mean residence time, intravenous administration); for Tmax: oral administration 1 mg/kg, 5 compounds cassette, read-out: Tmax (time to reach maximum plasma concentration)
Method: As the rat, 8-week-old male SD rats (Japan SLC, Inc.) were used. They were fed on a solid commercially available diet (CE-2, CLEA Japan, Inc.) and allowed to freely ingest tap water as the drinking water. An intravenous administration solution for the rats was prepared by weighing a test compound, dissolving same in dimethylacetamide (DMA) (Wako Pure Chemical Industries, Ltd.), adding the same volume of 1,3-butanediol (Wako Pure Chemical Industries, Ltd.) and mixing by stirring to give a DMA:1,3-butanediol (1:1, v/v) solution. An oral administration solution was prepared by weighing a test compound, pulverizing same in an agate mortar, and gradually adding 0.5 w/v % aqueous methylcellulose solution to give a suspension. For intravenous administration, the solution was administered into femoral vein of the rats at 0.1 mg/0.5 mL/kg (salt converted to free form). For oral administration, the suspension was administered to the rats at 1 mg/5 mL/kg (salt converted to free form). The cassette dosing method was used for the both administration routes, and the test compound was administered in the following manner.
Compound of Example 1 (intravenous: 10 compounds cassette administration, oral: 5 compounds cassette administration)
Compound of Example 27 (intravenous: 10 compounds cassette administration, oral: 5 compounds cassette administration)
Compound of Example 28 (intravenous: 10 compounds cassette administration, oral: 5 compounds cassette administration)
Compound of Example 29 (intravenous: 10 compounds cassette administration, oral: 5 compounds cassette administration)
In the case of intravenous administration, blood samples were collected from the tail vein at 5, 10, 15, 30 min, 1, 2, 4, 8 hr after administration, an anticoagulation treatment with heparin sodium (Shimizu Pharmaceutical Co., Ltd.) was performed, and plasma was collected after centrifugation and subjected to the measurement of drug concentration. In the case of oral administration, blood samples were collected from the tail vein at 15, 30 min, 1, 2, 4, 8 hr after administration, an anticoagulation treatment with heparin sodium was performed, and plasma was collected after centrifugation and subjected to the measurement of drug concentration.
All drug concentrations were measured by LC-MS/MS analysis. For a pharmacokinetics test, the plasma (50 μL) was placed in a tube, acetonitrile (150 μL) containing internal standard solution was added and they were mixed on a vortex mixer. Thereafter, the mixture was centrifuged (5000 rpm, 5 min, 4° C.). The supernatant (60 μL) after centrifugation was added to 10 mmol/L ammonium formate (160 μL) added earlier and mixed therewith. This sample was injected to LC/MS/MS. The HPLC system used was Shimadzu LC-20A (Shimadzu Corporation), the column used was Unison UK-C18 HT (3.0 μm, 2.0×20 mm, Imtakt) at 50° C., and 10 mmol/L ammonium formate, 0.2% formic acid as mobile phase A and acetonitrile, 0.2% formic acid as mobile phase B were fed each at a flow rate of 1.2 mL/min under gradient conditions of (B concentration: 0 min→0.1 min, 5%, 0.1→0.75 min, 5-99%, 0.75→1.15 min, 99%, 1.15→1.16 min, 5%, 1.16→1.5 min, 5%). MS/MS used was AB Sciex TQ5500-MPX (Applied Biosystems).
Tmax: time to reach maximum plasma concentration
iv: intravenous administration
CL total: total clearance

Male ICR mice = assay: Mouse defecation experiment; type: in vivo; conditions: oral, mean±standard error
Method: Mouse Defecation Experiment
Male ICR mice (6-7 weeks old) were used after an acclimation period for about 1 week. A test drug (1 mg/kg or 3 mg/kg) was suspended in 0.5% methylcellulose solution and orally administered at a volume of 10 mL/kg, and the number of feces 2 hr later was counted. Only 0.5% methylcellulose was administered to a solvent administration group.

Structure (SMILES)	clearance [1] [mL/min/kg]	MRT [1] [min]	Tmax [1] [min]	number of feces 2 hr later (Male ICR mice; 1 mg/kg)	number of feces 2 hr later (Male ICR mice; 3 mg/kg)
Cc1c(Cc2ccc(C(=O)NCC(=O)N(C)C)c(F)c2)cc(C(=O)N[C@H]2CCOC[C@@H]2O)c2c1CCO2 [Example 28, 1,5-anhydro-2,3-dideoxy-3-({5-[(4-{[2-(dimethylamino)-2-oxoethyl]carbamoyl}-3-fluorophenyl)methyl]-4-methyl-2,3-dihydro-1-benzofuran-7-carbonyl}amino)-L-threo-pentitol]	18.9	36	48	7.2 ± 1.9	6.2 ± 1.3
COCCNC(=O)c1ccc(Cc2cc(C(=O)N[C@H]3CCOC[C@@H]3O)c3c(c2C)CCO3)cc1F [Example 27, 1,5-anhydro-2,3-dideoxy-3-{[5-({3-fluoro-4-[(2-methoxyethyl)carbamoyl]phenyl}methyl)-4-methyl-2,3-dihydro-1-benzofuran-7-carbonyl]amino}-L-threo-pentitol]	19.6	42	60	7.4 ± 0.9	6.2 ± 1.0
Cc1c(Cc2ccc(C(=O)NC[C@H]3CCCO3)c(F)c2)cc(C(=O)N[C@H]2CCOC[C@@H]2O)c2c1CCO2 [Example 29, 1,5-anhydro-2,3-dideoxy-3-[(5-{[3-fluoro-4-({[(2R)-oxolan-2-yl]methyl}carbamoyl)phenyl]methyl}-4-methyl-2,3-dihydro-1-benzofuran-7-carbonyl)amino]-L-threo-pentitol]	27.5	36	30	–	–
Cc1c(Cc2ccc(-c3cn(C)nn3)cc2)cc(C(=O)N[C@H]2CCOC[C@@H]2O)c2c1CCO2 [Example 1, 1,5-anhydro-2,3-dideoxy-3-[(4-methyl-5-{[4-(1-methyl-1H-1,2,3-triazol-4-yl)phenyl]methyl}-2,3-dihydro-1-benzofuran-7-carbonyl)amino]-L-threo-pentitol]	3.08	108	60	8.8 ± 2.1	–
